# In PubChem BioAssay (NCI):
#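 Interpolation was linear, between the two tested concentrations surrounding the appropriate level; five concentrations were tested over 48 hours in 96-well plates. Here, GI50 denotes the concentration required for 50% inhibition of growth. TGI marks complete inhibition of growth.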
# Key:
# Experiment in all cases: inhibition of tumour cell growth, NCI panel, 48 h
# IGROV1 ovarian = tested on: IGROV1 ovarian
# LOX IMVI melanoma = tested on: LOX IMVI melanoma
# SR leukemia = tested on: SR leukemia
# HCC-2998 colon = tested on: HCC-2998 colon
# MCF7 breast = tested on: MCF7 breast
# SNB-75 CNS = tested on: SNB-75 CNS
# SK-MEL-28 melanoma = tested on: SK-MEL-28 melanoma
# NCI/ADR-RES ovarian = tested on: NCI/ADR-RES ovarian
# MDA-MB-435 = tested on: MDA-MB-435
# BT-549 breast = tested on: BT-549 breast
SMILES,TGI (IGROV1 ovarian),TGI (LOX IMVI melanoma),TGI (SR leukemia),TGI (HCC-2998 colon),TGI (MCF7 breast),TGI (SNB-75 CNS),TGI (SK-MEL-28 melanoma),TGI (NCI/ADR-RES ovarian),TGI (MDA-MB-435),TGI (BT-549 breast),GI50 (IGROV1 ovarian),GI50 (LOX IMVI melanoma),GI50 (SR leukemia),GI50 (HCC-2998 colon),GI50 (MCF7 breast),GI50 (SNB-75 CNS),GI50 (SK-MEL-28 melanoma),GI50 (NCI/ADR-RES ovarian),GI50 (MDA-MB-435),GI50 (BT-549 breast)
O=c1ccn(CC2(CO)CC(Cc3ccccc3)C2)c(=O)[nH]1 (stereo not given),> 100 µM,> 100 µM,> 100 µM,> 100 µM,> 100 µM,> 100 µM,> 100 µM,> 100 µM,> 100 µM,> 100 µM,,,,,,,,,,
CC(C)(Oc1ccc(Cl)cc1)C(=O)N(C(=O)N1CCC(c2ccccc2)CC1)c1ccccc1,> 100 µM,> 100 µM,> 100 µM,> 100 µM,> 100 µM,> 83.2 µM,> 100 µM,> 100 µM,> 100 µM,> 95.8 µM,,,,,,,,,,
COc1ccc(NC(C)=O)cc1N1C(=O)/C(=C\c2cc(OC)c(OC)c(OC)c2)SC1c1ccccc1 (stereo not given),> 100 µM,> 100 µM,> 100 µM,> 100 µM,> 100 µM,> 100 µM,> 100 µM,> 100 µM,> 100 µM,> 100 µM,,,,,,,,,,
CSC1=N/C(=C\c2ccco2)C(=O)N1CN1CCOCC1,> 100 µM,> 100 µM,> 92.6 µM,97 µM,> 100 µM,> 100 µM,> 100 µM,> 100 µM,> 100 µM,41.2 µM,,,,,,,,,,
O=C(O)c1nc(-c2ccccc2)[nH]c1C(=O)O,28.2 µM,9.47 µM,2.36 µM,12.8 µM,15.7 µM,33.6 µM,30.2 µM,> 82.8 µM,21.3 µM,35.9 µM,,,,,,,,,,
Cc1cc(N2CCCC2)nc(N(CCNc2ccnc3cc(Cl)ccc23)Cc2ccco2)n1,> 100 µM,10.4 µM,4.67 µM,56.7 µM,> 100 µM,60.7 µM,> 100 µM,79.6 µM,> 100 µM,> 100 µM,2.5 µM,2.66 µM,1.8 µM,4.58 µM,2.91 µM,10.7 µM,3.94 µM,2.99 µM,3.33 µM,5.74 µM
COc1ccc(C(SC2C(O)C(CO)OC2n2ccc(N)nc2=O)(c2ccccc2)c2ccc(OC)cc2)cc1 (stereo not given),67 µM,33.1 µM,58 µM,32.6 µM,50.6 µM,46.6 µM,75.6 µM,60 µM,28.2 µM,43 µM,,,,,,,,,,
C/C=C(/C)C(=O)O[C@H](C[C@@H](C)[C@H]1CC(c2ccoc2)OC1=O)[C@@]1(C)C(=O)CCC2O[C@]21C (stereo not given in full),> 100 µM,> 100 µM,> 100 µM,> 100 µM,> 100 µM,> 100 µM,> 100 µM,> 100 µM,> 100 µM,> 100 µM,,,,,,,,,,
Cc1c2c(n(CCc3ccc(Cl)cc3)c1C)NC(c1ccccc1)C(C#N)S2(=O)=O (stereo not given),> 100 µM,> 75 µM,38.2 µM,> 100 µM,> 60.1 µM,> 100 µM,> 100 µM,> 100 µM,> 66.9 µM,> 100 µM,,,,,,,,,,
O=c1oc2ccccc2cc1-c1cn2cc(Cl)ccc2n1,17.7 µM,18.7 µM,> 39.2 µM,21.7 µM,2.12 µM,> 21.2 µM,17.9 µM,2.73 µM,0.138 µM,21.9 µM,,,,,,,,,,
CC1(O)CC(=O)c2c(cc3ccc(-c4c5c(c(O)c6c(O)cccc46)C(=O)CC(C)(O)C5)c(O)c3c2O)C1 (stereo not given),3.43 µM,5.41 µM,7.06 µM,1.07 µM,1.7 µM,0.773 µM,7.01 µM,6.63 µM,1.97 µM,6.75 µM,,,,,,,,,,
COc1cc(/C=C2/C[C@H]3[C@@H]4CC=C5C[C@@H](OC(C)=O)CC[C@]5(C)[C@H]4CC[C@]3(C)NC2=O)cc(OC)c1OC,69.6 µM,> 100 µM,> 100 µM,> 100 µM,> 100 µM,47.3 µM,70.9 µM,54.4 µM,> 100 µM,55 µM,,,,,,,,,,
S=C1SCN(Cc2ccco2)CN1c1ccc(Br)cc1,45.7 µM,13 µM,31.4 µM,27.5 µM,31.3 µM,> 100 µM,43.1 µM,77.6 µM,36 µM,44 µM,,,,,,,,,,
COc1ccccc1NC(=O)CC(=O)N1N=C(C)C(N=Nc2ccc(C(=O)O)cc2)C1=O (stereo not given),> 100 µM,> 100 µM,> 100 µM,> 100 µM,> 100 µM,6.06 µM,> 100 µM,> 100 µM,> 100 µM,> 100 µM,,,,,,,,,,
CC(=O)Nc1ccc(OC2=CCN(C)CC2)cc1,> 100 µM,> 100 µM,> 100 µM,> 100 µM,> 100 µM,> 100 µM,> 100 µM,> 100 µM,> 100 µM,> 100 µM,,,,,,,,,,
CCCCCCCCCCCCCCCCCCNc1ccn(C2OC(COP(=O)(O)OCC3OC(n4cc(F)c(NCCCCCCCCCCCCCCCCCC)nc4=O)CC3O)C(O)C2O)c(=O)n1 (stereo not given),> 100 µM,> 100 µM,> 100 µM,> 100 µM,> 100 µM,> 100 µM,> 100 µM,> 100 µM,> 100 µM,> 100 µM,,,,,,,,,,
O=C1/C(=N\S(=O)(=O)c2ccccc2)C([n+]2ccc(Cc3ccccc3)cc2)=C([O-])c2ccccc21,4.92 µM,1.83 µM,> 100 µM,2.51 µM,2.12 µM,2.64 µM,2.14 µM,18.3 µM,0.377 µM,2.72 µM,,,,,,,,,,
O=c1[nH]nc(-c2ccccc2)n1/N=C/c1cccnc1,> 100 µM,> 100 µM,> 100 µM,> 100 µM,> 100 µM,> 100 µM,> 100 µM,> 100 µM,> 100 µM,> 100 µM,,,,,,,,,,
